Where a name gives a salt, the structure may show the parent alone.

In this assay the test system is CD4+ CCR4+ T cells. The assay is described as follows: Chemokine stimulated increases in cellular F-actin content. In kind it is cell-based. Conditions: Homo sapiens, T-cell, 0.5 h; PBMC from normal volunteers; antagonist 30 min at 37° C. before agonist for 15 sec; F-actin content by flow cytometry; read-out: pA2 (converted). Here is the method:
Chemokine Stimulated Increases in Cellular F-Actin Content
Blood was taken from normal volunteers who had taken no medication within the previous ten days and mixed with 1/9 of the volume of 3.8% tri-sodium citrate solution. Chemokine-induced increases in the F-actin content of CD4+ CCR4+ T cells were measured by a modification of the method of Pilette et al. (Eur. Respir. J; 23: 876-884, 2004). Peripheral blood mononuclear cells (PBMC) were isolated by dextran sedimentation followed by Percoll density gradient centrifugation. The PBMCs were incubated with FITC-conjugated anti-human CD4 and PE-conjugated anti-CCR4 antibodies or appropriate isotype controls for 15 min. The cell suspensions were then centrifuged at 400 g for 10 min and the pellets resuspended in assay buffer (phenol red-free RPMI 1640 medium containing 10 mM HEPES and 0.1% bovine serum albumin) at 10^7/mL. The resulting cell suspension was incubated with antagonist or vehicle (0.1% DMSO) for 30 min at 37° C. before stimulation with the agonist for 15 sec. The assay was terminated by addition of 3% formaldehyde. The fixed cells were washed twice with PBS (centrifuging at 1000 g for 5 min to recover the cells) and incubated at room temperature with Alexa fluor-647 phalloidin (0.075 U/mL) in the presence of lyso-phosphatidylcholine (93.75 μg/ml) for 20 min to stain F-actin. The cells were washed once more with PBS and the relative F-actin content of the cells was measured flow cytometrically. The mean fluorescence intensity of 1000 CD4^+ CCR4^+ cells per sample was determined and expressed as a fraction of the mean intensity of the CD4^+ CCR4^− cells in that sample.
(Flow cytometry measures light scatter and fluorescence of single cells or particles in a stream.)
On to `COc1cccc2c1c(NS(=O)(=O)c1ccc(Cl)s1)nn2Cc1cccc(CNC(=O)[C@H]2CCCCN2)c1` [Example 9, (2R)—N-[(3-{[3-{[(5-chloro-2-thienyl)sulfonyl]amino}-4-(methyloxy)-1H-indazol-1-yl]methyl}phenyl)methyl]-2-piperidinecarboxamide trifluoroacetate salt], for which the Kb was not above 126 nM.

For the compound `COc1cccc2c1c(NS(=O)(=O)c1ccc(Cl)s1)nn2Cc1cccc(CNC(=O)CO)c1` [Example 32, N-[(3-{[3-{[(5-Chloro-2-thienyl)sulfonyl]amino}-4-(methyloxy)-1H-indazol-1-yl]methyl}phenyl)methyl]-2-hydroxyacetamide], the Kb was not above 126 nM.

Consider `CCN(CC)C(=O)c1ccc(Cn2nc(NS(=O)(=O)c3ccc(Cl)s3)c3c(OC)cccc32)cc1` [Example 163, 4-{[3-{[(5-Chloro-2-thienyl)sulfonyl]amino}-4-(methyloxy)-1H-indazol-1-yl]methyl}-N,N-diethylbenzamide], for which the Kb was more than 1000 nM.

`COc1cccc2c1c(NS(=O)(=O)c1ccc(Cl)s1)nn2Cc1cccc(C(=O)NCCN(C)C)c1` [Example 65, 3-{[3-{[(5-Chloro-2-thienyl)sulfonyl]amino}-4-(methyloxy)-1H-indazol-1-yl]methyl}-N-[2-(dimethylamino)ethyl]benzamide]: the Kb was not above 126 nM.

With `COc1cccc2c1c(NS(=O)(=O)c1ccc(Cl)s1)nn2Cc1cccc(CNC(=O)C(C)(C)N(C)C)c1` [Example 34, N^1-[(3-{[3-{[(5-Chloro-2-thienyl)sulfonyl]amino}-4-(methyloxy)-1H-indazol-1-yl]methyl}phenyl)methyl]-N^2,N^2,2-trimethylalaninamide trifluoroacetate], the Kb was not above 126 nM.

As to `COc1ccc(Cn2nc(NS(=O)(=O)c3ccc(Cl)s3)c3c(OC)cccc32)cc1OCCN(C)C` [Example 110, 5-Chloro-N-[1-{[3-{[2-(dimethylamino)ethyl]oxy}-4-(methyloxy)phenyl]methyl}-4-(methyloxy)-1H-indazol-3-yl]-2-thiophenesulfonamide], the Kb was not above 126 nM.

Turning to `COc1cccc2c1c(NS(=O)(=O)c1ccc(Cl)s1)nn2Cc1cccc(CNC(=O)C2(N)CC2)c1` [Example 84, 1-Amino-N-[(3-{[3-{[(5-chloro-2-thienyl)sulfonyl]amino}-4-(methyloxy)-1H-indazol-1-yl]methyl}phenyl)methyl]cyclopropanecarboxamide trifluoroacetate], the Kb was not above 126 nM.

Regarding `COc1ccc(Cn2nc(NS(=O)(=O)c3ccc(Cl)s3)c3c(OC)cccc32)cc1OC` [Example 53, N-[1-{[3,4-Bis(methyloxy)phenyl]methyl}-4-(methyloxy)-1H-indazol-3-yl]-5-chloro-2-thiophenesulfonamide], the Kb was not above 126 nM.

As for `COc1cccc2c1c(NS(=O)(=O)c1ccc(Cl)s1)nn2Cc1cccc(CNC(=O)c2cnco2)c1` [Example 38, N-[(3-{[3-{[(5-Chloro-2-thienyl)sulfonyl]amino}-4-(methyloxy)-1H-indazol-1-yl]methyl}phenyl)methyl]-1,3-oxazole-5-carboxamide], the Kb is not above 126 nM.

For the compound `COc1cccc2c1c(NS(=O)(=O)c1ccc(Cl)s1)nn2Cc1ccc(OCCN(C)C)cc1` [Example 75, 5-Chloro-N-[1-[(4-{[2-(dimethylamino)ethyl]oxy}phenyl)methyl]-4-(methyloxy)-1H-indazol-3-yl]-2-thiophenesulfonamide], the Kb is not above 126 nM.

Turning to `COc1ccc(F)c2c1c(NS(=O)(=O)c1ccc(Cl)s1)nn2Cc1cccc(C(N)=O)c1` [Example 68, 3-{[3-{[(5-Chloro-2-thienyl)sulfonyl]amino}-7-fluoro-4-(methyloxy)-1H-indazol-1-yl]methyl}benzamide], the Kb was not above 126 nM.

For the compound `COc1cccc2c1c(NS(=O)(=O)c1ccc(Cl)s1)nn2Cc1cccc(CNC(=O)[C@H](N)CC(C)C)c1` [Example 45, N^1-[(3-{[3-{[(5-Chloro-2-thienyl)sulfonyl]amino}-4-(methyloxy)-1H-indazol-1-yl]methyl}phenyl)methyl]-D-leucinamide], the Kb is not above 126 nM.

Values taken from US8304446B2, “Compounds” (Glaxo Group Limited, priority 2009, dated 2012).
